Entries after “also recorded” stand apart in the source; their conditions may differ.
Columns and labels:
[1] = rat, in vivo; cited from earlier work
C2C12 murine myoblasts = type: cell-based
Protocol: In the experiment, immortalized murine C2C12 myoblast cells were exposed to various pre-assay growth conditions prior to being seeded into a Seahorse XF24 Extracellular Flux Analyzer cell culture plate. The basal oxygen consumption (OCR) and extracellular acidification (ECAR) rates were measured to establish baseline metabolic rates for each experimental culture condition. The cells were then metabolically perturbed by the successive addition of three different compounds that shift the bioenergetic profile of the cell.
The first compound added following the collection of baseline metabolic data was oligomycin.
The second agent injected, carbonyl cyanide-p-trifluoromethoxyphenylhydrazone (FCCP), is an ionophore that is a mobile ion carrier.
Rotenone, a Complex I inhibitor, is the third agent injected in sequence, it prevents the transfer of electrons from the Fe—S center in Complex I to ubiquinone (Coenzyme Q).
Rotenone exposure inhibits mitochondrial respiration and enables both the mitochondrial and non-mitochondrial fractions contributing to respiration to be calculated.
Statistical analysis was conducted via two-tailed Mann-Whitney U test of variance. U and P values were calculated using algorithms supplied by the Meta Numerics and ALGLIB statistical libraries. During calculations, when the value of N (the number of scores) was equal to or greater than 10, it was assumed that the sampling distribution was approximately normal, and a Z-ratio was also employed to calculate the value of P. The threshold for significance was set at P≦to 0.05 (Table 27A1 to Table 27F2).
C2C12 murine myoblast cells were placed into pre-assay growth condition categories and cultured for 24 hours.
CSC12 murine myoblast cells were seeded into a Seahorse XF24 24 well culture plate at a density of 10,000 cells/well in 100 microliters of Growth Medium.
The seeded XF24 culture plates were placed into a 37 degree Centigrade incubator at 10% CO2 for 24 hours. […]

glucocorticoid receptors = conditions: cultured cells; cited from earlier work

For `O=CC[C@@H](O)[C@H](O)[C@H](O)CO` [2-Deoxy-d-Glucose], the cardiac toxicity [1] is given as “cardiotoxicity”.
In the case of `C=C(C)[C@H]1Cc2c(ccc3c2O[C@@H]2COc4cc(OC)c(OC)cc4[C@@H]2C3=O)O1` [Rotenone], the “oxygen consumption rate (OCR) relative to Control condition” value (C2C12 murine myoblasts; 24 h pre-assay incubation for compositions, Rotenone 2.0 μM injected, basal and FCCP conditions) is reported as “significantly reduced; also recorded: decreased” and the “anaerobic metabolic activity as indicated by extracellular acidification rate (ECAR) relative to untreated control” value (C2C12 murine myoblasts; basal, Met/Mife 25 uM/50 uM (Table 27A1), MET/KET 1 mM/50 uM (Table 27F3), Rotenone 2.0 μM) is reported as “increased”.
For `CC(=O)N1CCN(c2ccc(OCC3COC(Cn4ccnc4)(c4ccc(Cl)cc4Cl)O3)cc2)CC1` (stereo not shown) [ketoconazole], the glucocorticoid receptor activity (glucocorticoid receptors) is given as “antagonist”.

— patent US20170340648A1, “Pharmaceutical Compositions Affecting Bioenergetic Processes in a Eukaryotic Biological System and Methods of Treatment” (JOYCE BIOTECH CORP., priority 2016, published 2017)
